Measurements published in paper PMC9181887, “In Vitro Antithrombotic, Hematological Toxicity, and Inhibitor Studies of Protocatechuic, Isovanillic, and p-Hydroxybenzoic Acids from Maclura tricuspidata (Carr.) Bur” (Molecules, 2022).
Values joined by “and” are separate entries in the source; they are usually repeats but may differ in a detail not shown here. Identical values can stand only once. Like-named read-outs stand apart in the source and are kept apart here.

What was measured:
[1] = tested on: thrombin-activated platelets; test: ATP release assay; format: cell-based; conditions: 10–100 μg, vs thrombin group, p < 0.05; except 10 μg of 4-HA (p = 0.915)
Description: (§1) Figure 7 Effect of PA, IVA, and 4-HA on granule secretion. Aliquots of washed platelets pre-treated with or without the compounds for 5 min were stimulated with 0.25 U/mL thrombin at 37 °C for 5 min. After stimulation, the platelets were centrifuged, and the supernatants were collected. Using these supernatants, ATP (A) or serotonin (B) release was determined according to the manufacturer’s instructions. Each value is the mean ± SD of triplicate measurements. # p < 0.01, compared to each control groups. * p < 0.05 and ** p < 0.01, compared to only thrombin-treated control groups. Thrombin, thrombin treated only; PA10-100, 10–100 μg of PA treated; IVA10-100, 10–100 μg of IVA treated; 4-HA10-100, 10–100 μg of 4-HA treated.
Aliquots of washed platelets (250 × 10^6/mL) pre-treated with the compounds for 5 min were activated with 0.25 U/mL of thrombin for 5 min at 37 °C, according to a previously described method, with slight modifications. After activation, the supernatant from centrifuged platelets was used. ATP release was evaluated using an ATP assay kit (Biomedical Research Service Center, Buffalo, NY, USA), according to the manufacturer’s instructions.

[2] = tested on: thrombin-activated platelets; test: Serotonin release assay; format: cell-based; conditions: p < 0.05
Description: as §1
Aliquots of washed platelets (250 × 10^6/mL) pre-treated with the compounds for 5 min were activated with 0.25 U/mL of thrombin in the presence of 1 mM of Ca^2+ for 5 min at 37 °C, according to a previously described method, with slight modifications. After stimulation, the reaction solution was centrifuged at 4 °C and 12,000× g for 5 min, and the supernatant was collected for subsequent use. Serotonin release was determined using a serotonin enzyme-linked immunosorbent assay kit (Labor Diagnostika Nord GmbH & Co., Nordhorn, Germany), according to the manufacturer’s instructions.

human FXa = molecular target: T1, human FXa (Homo sapiens, UniProt P00742); test: FXa activity and kinetic/inhibitor assay; format: biochemical; conditions: for FXa activity: 1–20 μg, vs control, p < 0.05; for IC50 / Kik/Kiv / Kcat / Vmax / Ki: FXa; for inhibition type against FXa: from Kik/Kiv ratio and Lineweaver–Burk plots
T1 construct: purchased Sigma-Aldrich
Description: To determine the thrombin activity, various concentrations of compounds were treated with 1 U human thrombin in 100 μL of 20 mM Tris-HCl, as previously described. The reaction solutions were incubated for 15 min at 37 °C. After the incubation, 1 mM chromogenic substrate for thrombin (S-2238, HD-Phe-Pip-Arg-p-nitroanilide) was added and incubated for 1 h at 37 °C. Absorbance was measured at 405 nm to determine the enzymatic activity. To determine FXa activity, various concentrations of the compounds were mixed with 1 U human FXa in 20 mM Tris-HCl (pH 7.4) in volume of 100 μL, followed by incubation for 15 min at 37 °C. After adding 1 mM N-benzoyl-Ile-Glu-Gly-Arg-p-nitroanilide, a highly specific chromogenic peptide substrate for FXa, the reaction solutions were incubated for 1 h at 37 °C. The residual activity of FXa was measured at 405 nm and is presented as a percentage of inhibition. To investigate FXIIIa activity, various concentrations of the compounds were mixed with 1 U human FXIIIa in 20 mM Tris-HCl (pH 7.4) in a volume of 100 μL, followed by, incubation for 15 min at 37 °C as previously described. The residual activity of FXIIIa was measured using casein and fibrinogen-HRP, according to the manufacturer’s instructions, and was presented as a percentage of inhibition. The negative control was generated by treatment with only thrombin, FXa, or FXIIIa without treatment with any compound.
Kinetic assays were performed using PA, IVA, and 4-HA for procoagulant proteases (thrombin and FXa) and fibrinoligase (FXIIIa). The kinetic constants were calculated using Lineweaver–Burk plots based on the initial reaction rates with different concentrations (0.1, 0.5, 1, and 2 mM) of each substrate for thrombin, FXa, and FXIIIa treated with or without the compounds (0.065, 0.13, 0.33, 0.65, and 1.30 mM [1–20 μg]) in a total volume of 100 μL. The Michaelis–Menten constant (Km) and maximal velocity (Vmax) were calculated from the x and y intercepts, respectively. […] The median inhibitory concentration (IC50) was defined as the concentration required to reach a 50% reduction in the activity of the three target factors. The Kik and Kiv inhibition constants were calculated using a previously described method. The inhibition type of the compounds against the three target factors was evaluated according to a previously described inhibition type definition.

[3] = tested on: fibrin clot network (Alexa Fluor 488 fibrinogen, thrombin); test: Fibrin clot assay using a fluorescence microscope; format: biochemical, human; conditions: fluorescent fibrinogen and thrombin, 30 min
Description: Fibrin clots were prepared by mixing 2.6 μM human fibrinogen and 0.4 μM Alexa Fluor 488 fibrinogen with 0.25 U/mL of thrombin in 20 mM Tris-HCl (pH 7.4) in a glass-bottom dish and treated with compounds or 20 IU u-PA as previously described. The mixtures were incubated for 30 min at 37 °C in the dark. Fibrin clots were observed under a fluorescence microscope (Nikon, Eclipse TE 2000-U, Kyoto, Japan) and photographed. Fibrin clots pre-treated with saline (control group) or […] (positive control group). Quantitative analysis of the fluorescent fibrin clots was performed using the ImageJ 1.46 b image analysis software.

[4] = tested on: platelet aggregation/activation in whole blood; test: PFA-100 platelet function assay, collagen/epinephrine cartridge; format: cell-based; conditions: for Closure time: control 118.6 ± 2.1 s
Description: The effects of the compounds on platelet aggregation/activation and adherence in whole blood under conditions of high shear stress flow were evaluated using a collagen/epinephrine cartridge (Dade Behring, Marburg, Germany) and platelet function analyzer (PFA-100), as previously described. Blood samples were drawn from healthy donors using 3.8% (w/v) sodium citrate. Aliquots of whole blood were treated with different concentrations of compounds and incubated for 5 min at room temperature. Blood samples were added to a collagen/epinephrine cartridge, and the time required for occlusion of the aperture was measured using the analyzer and reported as the closure time. Saline-treated blood was used as a control.

[5] = read-out: Kiv (inhibition constant using Vmax)

T1 sequence (P00742 235-488 limits assumed): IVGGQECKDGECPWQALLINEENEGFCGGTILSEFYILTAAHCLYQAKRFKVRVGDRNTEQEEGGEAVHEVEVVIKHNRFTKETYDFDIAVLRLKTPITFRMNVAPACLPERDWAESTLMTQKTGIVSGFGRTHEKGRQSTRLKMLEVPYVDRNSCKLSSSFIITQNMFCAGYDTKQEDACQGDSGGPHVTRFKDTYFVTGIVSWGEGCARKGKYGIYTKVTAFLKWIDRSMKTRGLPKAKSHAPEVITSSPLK
T1 sequence (P00742 41-179 limits assumed): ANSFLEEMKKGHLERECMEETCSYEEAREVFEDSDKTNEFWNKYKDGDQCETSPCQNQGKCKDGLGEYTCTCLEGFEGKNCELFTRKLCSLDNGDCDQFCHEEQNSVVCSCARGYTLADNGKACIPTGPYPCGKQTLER

| SMILES | thrombin-stimulated ATP secretion levels [1] | FXa activity (human FXa) | IC50 (human FXa) [mM] | Kik/Kiv (human FXa) | Kcat (human FXa; compound 0.065 mM (1 μg)) [s⁻¹] | Vmax (human FXa; compound 0.065 mM (1 μg)) [mU/min] | Kcat (human FXa; compound 0.13 mM (2 μg)) [s⁻¹] | Vmax (human FXa; compound 0.13 mM (2 μg)) [mU/min] | Kcat (human FXa; compound 0.325 mM (5 μg)) [s⁻¹] | Vmax (human FXa; compound 0.325 mM (5 μg)) [mU/min] | Kcat (human FXa; compound 0.65 mM (10 μg)) [s⁻¹] | Vmax (human FXa; compound 0.65 mM (10 μg)) [mU/min] | Kcat (human FXa; compound 1.3 mM (20 μg)) [s⁻¹] | Vmax (human FXa; compound 1.3 mM (20 μg)) [mU/min] | Ki (human FXa; read-out: Ki) [mM] | Ki (human FXa; [5]) [mM] | inhibition type against FXa (human FXa) | fibrin network structure / clot density [3] | Closure time ([4]; 10 μg) [s] | Closure time ([4]; 20 μg) [s] | other results |
| --- | --- | --- | --- | --- | --- | --- | --- | --- | --- | --- | --- | --- | --- | --- | --- | --- | --- | --- | --- | --- | --- |
| O=C(O)c1ccc(O)cc1 [4-HA, 4-hydroxybenzoic acid] | significantly decreased | significant reductions | 4.01 | 5.3 | 22.14 ± 0.22 | 0.60 ± 0.03 | 21.77 ± 0.26 | 0.59 ± 0.02 | 21.79 ± 0.44 | 0.59 ± 0.04 | 21.18 ± 0.42 | 0.57 ± 0.02 | 20.22 ± 0.37 | 0.55 ± 0.02 | 3.99 | 0.109 | non-competitive inhibition | morphological changes in the network and reduced fibrin clot density | 121.2 ± 1.9 | 127.7 ± 3.1 | thrombin-stimulated serotonin secretion ([2]; 100 μg): inhibited significantly; Closure time, fold of control ([4]; 50 μg): 1.13 fold; Closure time ([4]; 50 μg): 134.6 s and 134.6 ± 4.5 s; Closure time, fold of control ([4]; 100 μg): 1.24 fold; Closure time ([4]; 100 μg): 147.3 s and 147.3 ± 5.8 s |
| O=C(O)c1ccc(O)c(O)c1 [PA, protocatechuic acid] | significantly decreased | significant reductions | 3.09 | 1.6 | 21.36 ± 0.54 | 0.58 ± 0.03 | 17.35 ± 0.48 | 0.47 ± 0.02 | 14.67 ± 0.25 | 0.40 ± 0.02 | 12.09 ± 0.29 | 0.33 ± 0.01 | 11.62 ± 0.31 | 0.32 ± 0.01 | 3.07 | 0.023 | uncompetitive inhibition type | morphological changes in the network and reduced fibrin clot density | 119.9 ± 2.4 | 122.1 ± 1.4 | thrombin-stimulated serotonin secretion ([2]; 100 μg): inhibited significantly; Closure time ([4]; 50 μg): 126.3 ± 2.9 s; Closure time, fold of control ([4]; 100 μg): 1.13 fold; Closure time ([4]; 100 μg): 133.7 ± 5.2 s |
| COc1ccc(C(=O)O)cc1O [IVA, isovanillic acid] | significantly decreased | significant reductions | 4.21 | 5.6 | 24.20 ± 0.27 | 0.66 ± 0.04 | 22.34 ± 0.41 | 0.61 ± 0.02 | 22.23 ± 0.35 | 0.60 ± 0.03 | 20.67 ± 0.32 | 0.56 ± 0.03 | 18.56 ± 0.30 | 0.50 ± 0.04 | 4.19 | 0.075 | non-competitive inhibition | morphological changes in the network and reduced fibrin clot density | 118.5 ± 1.8 | 119.7 ± 2.8 | thrombin-stimulated serotonin secretion ([2]; 50–100 μg): inhibited significantly; Closure time ([4]; 50 μg): 123.5 ± 2.2 s; Closure time, fold of control ([4]; 100 μg): 1.09 fold; Closure time ([4]; 100 μg): 129.4 ± 3.4 s |
